Test results taken from the kinase profiling compilation of Christmann-Franck et al. (2016).
One block for each compound: values may come before it.

Experiments:
Experiment in all cases: radiometric filter-binding kinase assay
MAPK9 (human) = MAPK9 (human) (UniProt P45984); conditions: compound 25.0 µM; ATP 20 µM
SRC (chicken) = conditions: ATP 50 µM, accession and sequence are those of the human protein
[1] = tested on: AKT1 (human), P31749 [S473D]; conditions: compound 10.0 µM; ATP 5 µM
PKN2 (human) = PKN2 (human) (UniProt Q16513); conditions: compound 10.0 µM; ATP 5 µM
[2] = target: CSNK2A1 or CSNK2A2 (human) (UniProt P19784+P68400); conditions: compound 1.0 µM; ATP 5 µM
PAK7 (human) = PAK7 (human) (UniProt Q9P286); conditions: compound 1.0 µM; ATP 20 µM
MAPK11 (human) = MAPK11 (human) (UniProt Q15759); conditions: compound 1.0 µM; ATP 20 µM
PRKCG (human) = PRKCG (human) (UniProt P05129); conditions: compound 1.0 µM; ATP 5 µM
PDPK1 (human) = PDPK1 (human) (UniProt O15530); conditions: compound 1.0 µM
PHKG1 or PHKG2 (human) = PHKG1 or PHKG2 (human) (UniProt P15735+Q16816); conditions: compound 1.0 µM; ATP 50 µM
CSNK1D (human) = CSNK1D (human) (UniProt P48730); conditions: compound 1.0 µM; ATP 20 µM
MAPK14 (human) = MAPK14 (human) (UniProt Q16539); conditions: compound 10.0 µM; ATP 50 µM
Sequence of MAPK14 (human) (Q16539 whole entry, looked up): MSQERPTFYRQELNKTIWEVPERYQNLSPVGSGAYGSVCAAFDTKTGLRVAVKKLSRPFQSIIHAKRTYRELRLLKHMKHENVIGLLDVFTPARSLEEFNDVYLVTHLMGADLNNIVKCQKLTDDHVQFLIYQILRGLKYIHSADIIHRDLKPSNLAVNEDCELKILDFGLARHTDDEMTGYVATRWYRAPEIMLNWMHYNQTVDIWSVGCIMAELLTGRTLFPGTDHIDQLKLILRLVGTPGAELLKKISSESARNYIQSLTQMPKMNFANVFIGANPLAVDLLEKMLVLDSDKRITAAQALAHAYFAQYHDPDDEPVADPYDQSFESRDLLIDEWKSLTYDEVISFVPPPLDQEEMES

Sequence of PDPK1 (human) (O15530 whole entry, looked up): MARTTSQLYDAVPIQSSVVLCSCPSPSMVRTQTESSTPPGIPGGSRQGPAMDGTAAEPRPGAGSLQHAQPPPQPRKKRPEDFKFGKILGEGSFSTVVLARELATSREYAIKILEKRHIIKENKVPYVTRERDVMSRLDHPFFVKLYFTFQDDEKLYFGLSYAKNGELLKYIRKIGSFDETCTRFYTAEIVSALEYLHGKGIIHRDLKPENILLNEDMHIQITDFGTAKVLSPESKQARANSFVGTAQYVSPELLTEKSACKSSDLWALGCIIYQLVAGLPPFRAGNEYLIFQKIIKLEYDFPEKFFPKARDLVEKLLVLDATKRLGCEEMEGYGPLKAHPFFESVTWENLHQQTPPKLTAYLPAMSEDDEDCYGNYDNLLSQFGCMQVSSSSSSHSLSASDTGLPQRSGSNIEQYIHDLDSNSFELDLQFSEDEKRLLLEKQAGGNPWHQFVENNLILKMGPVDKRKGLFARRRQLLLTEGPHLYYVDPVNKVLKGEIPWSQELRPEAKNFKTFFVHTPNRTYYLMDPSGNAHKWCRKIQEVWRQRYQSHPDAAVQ
Sequence of PHKG1 or PHKG2 (human) (P15735 whole entry, looked up): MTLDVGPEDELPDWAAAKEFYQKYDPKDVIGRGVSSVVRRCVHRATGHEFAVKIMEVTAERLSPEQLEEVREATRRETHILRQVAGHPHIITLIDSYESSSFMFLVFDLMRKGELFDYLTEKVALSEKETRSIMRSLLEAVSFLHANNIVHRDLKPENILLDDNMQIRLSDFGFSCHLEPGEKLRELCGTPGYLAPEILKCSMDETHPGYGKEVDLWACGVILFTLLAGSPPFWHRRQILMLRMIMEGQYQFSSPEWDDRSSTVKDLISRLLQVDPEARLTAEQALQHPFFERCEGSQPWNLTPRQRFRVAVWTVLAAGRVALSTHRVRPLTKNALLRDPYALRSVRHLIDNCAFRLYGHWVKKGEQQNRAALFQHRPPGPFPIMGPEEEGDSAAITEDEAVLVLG
Sequence of PHKG1 or PHKG2 (human) (Q16816 whole entry, looked up): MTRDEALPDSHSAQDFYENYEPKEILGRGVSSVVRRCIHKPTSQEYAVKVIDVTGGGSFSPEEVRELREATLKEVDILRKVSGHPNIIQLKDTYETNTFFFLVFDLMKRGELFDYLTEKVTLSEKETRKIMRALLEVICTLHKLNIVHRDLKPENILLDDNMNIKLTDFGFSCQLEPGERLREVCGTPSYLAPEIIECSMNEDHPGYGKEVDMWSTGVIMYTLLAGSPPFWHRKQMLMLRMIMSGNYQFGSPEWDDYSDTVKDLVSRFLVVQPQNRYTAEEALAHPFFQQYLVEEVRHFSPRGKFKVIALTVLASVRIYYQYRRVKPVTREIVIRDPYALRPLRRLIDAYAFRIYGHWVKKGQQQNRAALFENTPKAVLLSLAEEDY
Sequence of MAPK9 (human) (P45984 whole entry, looked up): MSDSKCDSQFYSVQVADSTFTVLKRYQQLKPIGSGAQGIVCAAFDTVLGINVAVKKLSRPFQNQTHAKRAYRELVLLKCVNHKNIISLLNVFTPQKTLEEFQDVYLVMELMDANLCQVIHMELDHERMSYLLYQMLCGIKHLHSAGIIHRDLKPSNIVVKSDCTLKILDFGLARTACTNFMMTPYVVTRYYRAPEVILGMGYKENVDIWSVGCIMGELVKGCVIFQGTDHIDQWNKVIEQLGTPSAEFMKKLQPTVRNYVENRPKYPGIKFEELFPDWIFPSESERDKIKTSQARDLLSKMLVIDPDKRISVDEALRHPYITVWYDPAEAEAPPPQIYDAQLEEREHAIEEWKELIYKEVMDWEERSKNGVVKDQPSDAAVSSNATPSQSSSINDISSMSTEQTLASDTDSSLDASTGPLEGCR
Sequence of AKT1 (human), P31749 [S473D] (P31749 whole entry S473D, looked up): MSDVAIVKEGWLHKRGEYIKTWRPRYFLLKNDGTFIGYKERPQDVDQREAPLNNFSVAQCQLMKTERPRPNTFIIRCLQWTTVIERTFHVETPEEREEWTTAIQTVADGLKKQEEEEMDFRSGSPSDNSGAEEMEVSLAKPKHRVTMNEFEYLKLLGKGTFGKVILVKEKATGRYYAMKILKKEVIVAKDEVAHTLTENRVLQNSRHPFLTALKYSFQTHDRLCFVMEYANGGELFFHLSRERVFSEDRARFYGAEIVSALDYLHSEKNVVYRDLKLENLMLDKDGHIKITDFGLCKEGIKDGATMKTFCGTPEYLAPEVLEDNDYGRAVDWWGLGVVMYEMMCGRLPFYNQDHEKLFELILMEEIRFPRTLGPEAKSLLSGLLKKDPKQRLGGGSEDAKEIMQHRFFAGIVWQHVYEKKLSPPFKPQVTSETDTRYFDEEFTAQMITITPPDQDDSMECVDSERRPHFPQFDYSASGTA
Sequence of PKN2 (human) (Q16513 whole entry, looked up): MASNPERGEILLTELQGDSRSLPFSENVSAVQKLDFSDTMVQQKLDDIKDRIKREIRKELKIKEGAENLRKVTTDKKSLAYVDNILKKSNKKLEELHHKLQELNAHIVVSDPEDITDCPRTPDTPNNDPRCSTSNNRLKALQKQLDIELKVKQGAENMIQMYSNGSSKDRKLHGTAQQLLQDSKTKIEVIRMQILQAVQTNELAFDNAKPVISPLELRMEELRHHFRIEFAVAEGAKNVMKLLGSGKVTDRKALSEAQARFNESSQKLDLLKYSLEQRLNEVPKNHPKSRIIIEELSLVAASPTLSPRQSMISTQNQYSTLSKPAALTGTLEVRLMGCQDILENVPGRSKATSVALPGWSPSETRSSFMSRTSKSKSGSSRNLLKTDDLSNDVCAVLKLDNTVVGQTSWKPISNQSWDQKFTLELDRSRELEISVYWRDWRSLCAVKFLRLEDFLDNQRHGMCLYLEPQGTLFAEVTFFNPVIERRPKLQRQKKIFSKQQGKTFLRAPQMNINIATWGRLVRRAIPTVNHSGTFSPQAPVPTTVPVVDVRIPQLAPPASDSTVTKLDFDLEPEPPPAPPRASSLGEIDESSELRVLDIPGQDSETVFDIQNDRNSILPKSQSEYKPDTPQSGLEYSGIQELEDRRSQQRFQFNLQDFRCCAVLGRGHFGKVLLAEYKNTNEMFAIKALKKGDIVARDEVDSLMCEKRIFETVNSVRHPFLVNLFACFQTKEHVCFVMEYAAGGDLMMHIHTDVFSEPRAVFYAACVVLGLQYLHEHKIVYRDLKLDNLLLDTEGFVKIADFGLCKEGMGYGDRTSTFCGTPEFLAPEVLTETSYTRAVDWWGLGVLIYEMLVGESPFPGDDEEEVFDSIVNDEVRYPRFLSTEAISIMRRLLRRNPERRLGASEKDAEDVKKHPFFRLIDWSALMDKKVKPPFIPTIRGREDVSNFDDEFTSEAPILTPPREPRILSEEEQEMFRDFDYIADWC
Sequence of CSNK1D (human) (P48730 whole entry, looked up): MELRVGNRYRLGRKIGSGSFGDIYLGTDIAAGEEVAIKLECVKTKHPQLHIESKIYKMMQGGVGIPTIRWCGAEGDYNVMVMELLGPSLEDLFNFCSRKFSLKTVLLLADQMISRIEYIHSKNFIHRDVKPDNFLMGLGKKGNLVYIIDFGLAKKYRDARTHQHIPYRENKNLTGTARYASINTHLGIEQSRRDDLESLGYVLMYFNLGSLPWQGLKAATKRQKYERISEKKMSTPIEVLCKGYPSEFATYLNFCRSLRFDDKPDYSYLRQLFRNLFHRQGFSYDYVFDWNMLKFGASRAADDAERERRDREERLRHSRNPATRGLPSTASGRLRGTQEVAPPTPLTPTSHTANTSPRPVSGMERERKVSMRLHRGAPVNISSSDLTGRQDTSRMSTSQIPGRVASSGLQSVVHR

residual activity (MAPK9 (human)): 101%
SMILES: COc1cc(OC)c(/C=C2\C(=O)Nc3ccccc32)c(OC)c1

residual activity (SRC (chicken); compound 1.0 µM): 20%
SMILES: CC(C)(C)n1nc(-c2cccc3ccccc23)c2c(N)ncnc21

residual activity [1]: 107% | residual activity (PKN2 (human)): 107%
SMILES: NC(=O)c1ccc(-c2nc(-c3ccccn3)c(-c3ccc4c(c3)OCCO4)[nH]2)cc1

residual activity [2]: 92% | residual activity (PAK7 (human)): 74% | residual activity (MAPK11 (human)): 94% | residual activity (PRKCG (human)): 82% | residual activity (PDPK1 (human); ATP 20 µM): 80% | residual activity (PDPK1 (human); ATP 50 µM): 90% | residual activity (PHKG1 or PHKG2 (human)): 93%
SMILES: CC[C@@H](CO)Nc1nc(NCc2ccccc2)c2ncn(C(C)C)c2n1

SMILES: COc1ccc2c(c1)[nH]c1c(C)nccc12
residual activity (CSNK1D (human)): 60%

residual activity (MAPK14 (human)): 8%
SMILES: Cc1ccc(NC(=O)c2cccc(N(C)C)c2)cc1NC(=O)c1ccc(O)cc1

IC50 (SRC (chicken)): 100 nM
SMILES: CN(C)S(=O)(=O)c1ccc2c(c1)/C(=C/c1cc3c([nH]1)CCCC3)C(=O)N2
